Measurements as given in patent publication US9623009B2, “Veliparib in combination with carboplatin and paclitaxel for the treatment of non-small cell lung cancer in smokers” (AbbVie Inc., priority 2014, dated 2017).

Experiments:
[1] = test system: metastatic or advanced non-small cell lung cancer (NSCLC); test: Phase 2 randomized double-blind study: PFS and OS with veliparib + carboplatin/paclitaxel versus placebo + carboplatin/paclitaxel; format: in vivo, human
Method: (§1) A Phase 2, randomized, double-blind, multi-center study was conducted evaluating the efficacy, safety, and tolerability of veliparib in combination with carboplatin and paclitaxel versus placebo in combination with carboplatin and paclitaxel in subjects with documented metastatic or advanced non-small cell lung cancer (NSCLC) as first-line chemotherapy. Patients were randomized in a 2:1 ratio to either veliparib+carboplatin/paclitaxel or placebo+carboplatin/paclitaxel. Patient randomization was stratified by histology (squamous cell versus non-squamous cell), and smoking history (current smoker versus never smoked versus past smoker). Screening procedures and baseline radiographic tumor assessments were performed within 21 days prior to the first day veliparib/placebo was administered. Radiographic tumor assessments were conducted every 6 weeks and were sent to a central imaging center for review. Dosing of oral veliparib/placebo (120 mg) began 2 days prior to the start of the carboplatin/paclitaxel and was given twice a day (BID) for 7 days. […] All subjects were to remain on study until reaching a protocol defined event of disease progression. Patients who completed 6 cycles of treatment remained on study/off study drugs until reaching an event of disease progression. Chemotherapy or biological therapy (maintenance therapy) was not allowed until disease progression. Patients who experienced toxicities due to carboplatin/paclitaxel or veliparib may have been given a delay in the dosing schedule or a dose modification.

clinical = test: clinical
Method: as §1
Pharmacokinetic parameters were evaluated for patients with chemical evidence of recent smoking (cotinine high^b, >10 ng/mL) compared with those without evidence of recent smoking (cotinine low, ≦10 ng/mL).

[2] = patients without chemical evidence of smoking

Compound: C[C@]1(c2nc3c(C(N)=O)cccc3[nH]2)CCCN1 [Veliparib, 2-[(2R)-2-methylpyrrolidin-2-yl]-1H-benzimidazole-4-carboxamide]
- HR for OS ([1]; light smokers (<39 pack-years)): 0.808
- HR for PFS ([1]; light smokers (<39 pack-years)): 0.971
- HR for OS [1, 2]: 0.921
- HR for PFS [1, 2]: 0.966
- Tmax, Mean ± SD (% CV) (clinical; human, in vivo, po): 1.05 ± 0.82 (78.3) hr
- Tmax (clinical; human, in vivo, po, Tmax, Mean ± SD (% CV)): 1.34 h

Compound: N.N.O=C([O-])C1(C(=O)[O-])CCC1.[Pt+2] [carboplatin]
- differences in levels between cotinine high and cotinine low patients (clinical; cotinine high >10 ng/mL vs cotinine low ≦10 ng/mL): no clear differences
